From ChEMBL document CHEMBL3739422, “Hydroxytyrosol-Derived Compounds: A Basis for the Creation of New Pharmacological Agents for Cancer Prevention and Therapy” (J Med Chem, 2015) come the findings set out here.

Structures are written as SMILES.

One series has as its system MRC5. Kind of series: Cytotoxicity against human MRC5 cells assessed as cell viability after 48 hrs by MTT assay. It counts as cell-based. Particulars: MRC5, 48 h.
Another series deals with A549. Kind of series: Cytotoxicity against human A549 cells assessed as cell viability after 48 hrs by MTT assay. It counts as functional, cell-based. Particulars: A549, 48 h. A general note: Formazan colour is commonly taken as a measure of viable cells.
The nature of series [1]: Selectivity ratio of IC50 for human MRC5 cells to IC50 for human A549 cells. It counts as ADME, cell-based. The settings on record: MRC5 cells versus A549 cells, read-out: Ratio IC50.
Series [2] deals with THP-1. The experiment in a line: Inhibition of LPS-induced TNFalpha production in human THP1 cells at 0.5 uM after 3 hrs by microplate reader analysis. It counts as functional. Particulars: THP-1, 3 h.
The subject of series [3] is THP-1. Kind of series: Inhibition of LPS-induced TNFalpha production in human THP1 cells at 100 uM after 3 hrs by microplate reader analysis. Particulars: THP-1, 3 h. It counts as functional.
In series [4] the test system is THP-1. Kind of series: Inhibition of LPS-induced TNFalpha production in human THP1 cells at 10 uM after 3 hrs by microplate reader analysis. It counts as functional. The settings on record: THP-1, 3 h.
Series [5] has as its system Rattus norvegicus. The experiment in a line: Inhibition of A23187-induced TXA2 synthesis in Wistar rat at 20 mg/kg, po qd administered for 7 days measured after 1 hr post last dose by enzyme immuno assay. In kind it is functional.
Series [6] has as its system Rattus norvegicus. Kind of series: Inhibition of plasma lipid peroxide in Wistar rat at 20 mg/kg, po qd administered for 7 days measured after 1 hr post last dose by spectrophotometric analysis. In kind it is functional.
Series [7] relates to Platelet. The experiment in a line: Inhibition of collagen-induced platelet aggregation in human whole blood preincubated for 10 mins prior to collagen addition measured after 10 mins by aggregometric analysis. In kind it is functional, tissue-based.
Series [8] deals with Rattus norvegicus. The experiment in a line: Inhibition of collagen-induced platelet aggregation in Wistar rat at 20 mg/kg, po qd administered for 7 days measured after 1 hr post last dose by aggregometric analysis. In kind it is functional.
Series [9] deals with Rattus norvegicus. The experiment in a line: Induction of NO production in Wistar rat at 1 to 10 mg/kg, po qd administered for 7 days measured after 1 hr post last dose by enzyme immuno assay. In kind it is functional.
For series [10], the system named is Rattus norvegicus. The experiment in a line: Inhibition of collagen-induced platelet aggregation in po dosed Wistar rat administered for 7 days measured after 1 hr post last dose by aggregometric analysis. It counts as functional. Particulars: read-out: ID50 (the source's name).
For series [11], the system named is Rattus norvegicus. Kind of series: Induction of NO production in Wistar rat at 1 to 100 mg/kg, po qd administered for 7 days measured after 1 hr post last dose by enzyme immuno assay. It counts as functional.
Series [12] is described as follows: Cytotoxicity against human Caco2/TC7 cells assessed as growth inhibition at 5 uM after 24 hrs by WST-1 assay. It counts as functional. Particulars: Caco-2, 24 h, read-out: GI.
Series [13] is described as follows: Cytotoxicity against human Caco2/TC7 cells assessed as growth inhibition after 24 hrs by WST-1 assay. In kind it is functional, cell-based. The settings on record: Caco-2, 24 h.
The subject of a further series is HeLa. The experiment in a line: Antioxidant activity in human HeLa cells assessed as reduction in iron-reactive oxidative stress preincubated for 4 hrs prior to FeSO4 addition measured after 1 hr by TBARS assay. In kind it is functional. Also on record: scale not given: the % may be the effect or the level left.
Series [14] concerns Rattus norvegicus. The experiment in a line: Inhibition of A23187-induced TXA2 synthesis in Wistar rat at 1 to 100 mg/kg, po qd administered for 7 days measured after 1 hr post last dose by enzyme immunoassay. It counts as functional.
Series [15] relates to Platelet. Kind of series: Inhibition of collagen-induced platelet aggregation in human platelet rich plasma preincubated for 10 mins. In kind it is functional, cell-free.
Series [16] concerns Platelet. The experiment in a line: Inhibition of ADP-induced platelet aggregation in human platelet rich plasma preincubated for 10 mins. It counts as functional, cell-free.

What is called IC50 is the concentration at which inhibition is half-maximal. Usually inhibition stands for the share of the control response that was lost under treatment. As usually defined, the inhibition in vivo is the drop in the measured response relative to a control, in per cent.

As for `CCCCCCCCCCCCOCCc1ccc(O)c(O)c1`, the concentration for half-maximal inhibition (IC50) with MRC5 was found to be 49 µM; with A549 it was 20 µM. Also, in series [1], the selectivity ratio stood at 2.46.
Regarding `Oc1cc2c(cc1O)C(c1ccccc1)OCC2` (stereo not given), in the series with THP-1 [2], 0.5 µM produced 30% inhibition. In the series with THP-1 [3], the inhibition at 100 µM is 80%. For the same molecule, the inhibition at 10 µM in the series on THP-1 [4] is 60%.
`CCCCCCOCCc1ccc(O)c(O)c1`: the inhibition in vivo at 20 mg/kg in the series with Rattus norvegicus [5] came to 58.7%; in the series on Rattus norvegicus [6] it was 84.7%; with Rattus norvegicus [8], 58.7%. In addition, inhibition in the series with Platelet [7] was half-maximal at 0.1 µM (IC50).
For the molecule `CC(=O)Oc1ccccc1C(=O)O` [ASPIRIN], the “inhibition (INH)” value in the series on Rattus norvegicus [9] is 64%. Also, the ED50 in the series on Rattus norvegicus [10] was found to be 2.42 mg/kg/day.
For the molecule `CC(=O)OCCc1ccc(O)c(O)c1`, the entries for the “inhibition (INH)” value with Rattus norvegicus [11] and with Rattus norvegicus [14] were 66% and 37%, respectively. For the same molecule, in series [12], the inhibition of growth at 5 µM was 20%. Further, the concentration for half-maximal inhibition (IC50) in [13] was determined as 32 µM; in the series on Platelet [7], 10 µM. Also, the Activity in the series with HeLa is reported as 36%. Besides, the ED50 in the series on Rattus norvegicus [10] is 16.1 mg/kg/day.
`OCCc1ccc(O)c(O)c1` [HYDROXYTYROSOL]: the results for the concentration for half-maximal inhibition (IC50) in the series on Platelet [15] and with Platelet [16] were 67 µM and 27 µM, respectively. For the same molecule, the results for the “inhibition (INH)” value in the series with Rattus norvegicus [11] and in the series with Rattus norvegicus [14] were 34.2% and 30%, respectively. Further, the ED50 in the series on Rattus norvegicus [10] was 48.2 mg/kg/day.
Take `CCCCCCCC/C=C\CCCCCCCC(=O)OCCc1ccc(O)c(O)c1`: in the series with HeLa, the Activity was found to be 38%.
